Results reported in ChEMBL document CHEMBL4765225, “A peptide inhibitor of antibody-dependent cell-mediated cytotoxicity against EGFR/folate receptor-alpha double positive cells” (Medchemcomm, 2018).
Active and inactive are the calls of the source. No cut-off for these calls is given here.

Key:
[1] = Inhibition of antibody-dependent cell-mediated cytotoxicity in human IGROV1 cells incubated for 10 mins followed by addition of KHYG-1/FC-gamma-3A-158V by LDH assay; format: functional, cell-based; conditions: IGROV-1, 10 min
IGROV-1 [2] = assay: Induction of CD20 antibody recruitment on human IGROV1 cell surface by flow cytometry analysis; format: functional, tissue-based
IGROV-1 [3] = assay: Induction of CD20 antibody accumulation on human IGROV1 cell surface assessed as ternary complex formation in presence of excess folate by fluorescence microscopy; format: functional, tissue-based
IGROV-1 [4] = assay: Induction of EGFR antibody accumulation on human IGROV1 cell surface assessed as ternary complex formation by fluorescence microscopy; format: functional
IGROV-1 [5] = assay: Induction of EGFR antibody accumulation on human IGROV1 cell surface assessed as ternary complex formation in presence of excess folate by fluorescence microscopy; format: functional, tissue-based
A549 = assay: Induction of EGFR antibody accumulation on human A549 cell surface assessed as ternary complex formation by fluorescence microscopy; format: functional, tissue-based
IGROV-1 [6] = assay: Induction of CD20 antibody recruitment on human IGROV1 cell surface assessed as ternary complex formation by fluorescence microscopy; format: functional
IGROV-1 [7] = assay: Induction of CD20 antibody accumulation on human IGROV1 cell surface assessed as ternary complex formation by fluorescence microscopy; format: functional

| SMILES | IC50 [1] | Activity (IGROV-1 [2]) | Activity (IGROV-1 [3]) | Activity (IGROV-1 [4]) | Activity (IGROV-1 [5]) | Activity (A549) | Activity (IGROV-1 [6]) | Activity (IGROV-1 [7]) |
| --- | --- | --- | --- | --- | --- | --- | --- | --- |
| CC(C)C[C@@H]1NC(=O)[C@H](Cc2c[nH]cn2)NC(=O)[C@H](Cc2c[nH]c3ccccc23)NC(=O)[C@H](C)NC(=O)[C@@H](NC(=O)[C@H](CC(=O)O)NC(=O)CCOCCOCCOCCOCCOCCOCCNC(=O)CCC(NC(=O)c2ccc(NCc3cnc4[nH]c(N)nc(=O)c4n3)cc2)C(=O)O)CSSC[C@@H](C(=O)N[C@H](C(N)=O)[C@@H](C)O)NC(=O)[C@H](Cc2c[nH]c3ccccc23)NC(=O)[C@H](C(C)C)NC(=O)[C@H](CC(C)C)NC(=O)[C@H](CCC(=O)O)NC(=O)CNC1=O (some centres undefined) | 0.4 nM | Active | inactive | Active | inactive | inactive | – | – |
| CC(C)C[C@@H]1NC(=O)[C@H](Cc2c[nH]cn2)NC(=O)[C@H](Cc2c[nH]c3ccccc23)NC(=O)[C@H](C)NC(=O)[C@@H](NC(=O)[C@H](CC(=O)O)NC(=O)CCOCCOCCOCCOCCOCCOCCNC(=O)C(CCCCNC(=O)c2ccc(-c3c4ccc(=[N+](C)C)cc-4oc4cc(N(C)C)ccc34)c(C(=O)[O-])c2)NC(=O)CCC(NC(=O)c2ccc(NCc3cnc4[nH]c(N)nc(=O)c4n3)cc2)C(=O)O)CSSC[C@@H](C(=O)N[C@H](C(N)=O)[C@@H](C)O)NC(=O)[C@H](Cc2c[nH]c3ccccc23)NC(=O)[C@H](C(C)C)NC(=O)[C@H](CC(C)C)NC(=O)[C@H](CCC(=O)O)NC(=O)CNC1=O (some centres undefined) | – | – | – | – | – | inactive | Active | Active |
